Results reported in ChEMBL document CHEMBL3124787, “Discovery of novel bis-oxazolidinone compounds as potential potent and selective antitubercular agents” (Bioorg Med Chem Lett, 2014).
≈ marks a conversion by molar mass, not a printed value.

Tests used:
[1] = test system: Mycobacterium tuberculosis; test: Antitubercular activity against Mycobacterium tuberculosis H37RV ATCC 27294 assessed as growth inhibition after 3 to 11 days by microdilution method; format: functional
Pseudomonas aeruginosa = test: Antibacterial activity against Pseudomonas aeruginosa ATCC 27853 assessed as growth inhibition after 18 hrs by broth microdilution method; format: functional; conditions: ATCC 27853, 18 h
Escherichia coli = test: Antibacterial activity against Escherichia coli ATCC 25922 assessed as growth inhibition after 18 hrs by broth microdilution method; format: functional; conditions: ATCC 25922, 18 h
[2] = test system: Mycolicibacterium smegmatis; test: Antibacterial activity against Mycobacterium smegmatis assessed as growth inhibition after 18 hrs by broth microdilution method; format: functional
Staphylococcus aureus [3] = test: Antibacterial activity against methicillin-resistant Staphylococcus aureus ATCC 43300 assessed as growth inhibition after 18 hrs by broth microdilution method; format: functional; conditions: ATCC 43300, 18 h
Staphylococcus aureus [4] = test: Antibacterial activity against methicillin-resistant Staphylococcus aureus ATCC 33591 assessed as growth inhibition after 18 hrs by broth microdilution method; format: functional; conditions: ATCC 33591, 18 h
Staphylococcus aureus [5] = test: Antibacterial activity against methicillin-susceptible Staphylococcus aureus CMCC 26003 assessed as growth inhibition after 18 hrs by broth microdilution method; format: functional; conditions: CMCC 26003, 18 h
Staphylococcus aureus [6] = test: Antibacterial activity against methicillin-susceptible Staphylococcus aureus ATCC 6538 assessed as growth inhibition after 18 hrs by broth microdilution method; format: functional; conditions: ATCC 6538, 18 h
Staphylococcus aureus [7] = test: Antibacterial activity against methicillin-susceptible Staphylococcus aureus ATCC 29213 assessed as growth inhibition after 18 hrs by broth microdilution method; format: functional; conditions: ATCC 29213, 18 h
Staphylococcus aureus [8] = test: Antibacterial activity against methicillin-susceptible Staphylococcus aureus ATCC 25923 assessed as growth inhibition after 18 hrs by broth microdilution method; format: functional; conditions: ATCC 25923, 18 h
[9] = Aqueous solubility of the compound by HPLC analysis; format: physicochemical
[10] = Lipophilicity, log P of the compound by HPLC analysis; format: physicochemical

| SMILES | MIC [1] | MIC99 (Pseudomonas aeruginosa) | MIC99 (Escherichia coli) | MIC99 [2] | MIC99 (Staphylococcus aureus [3]) | MIC99 (Staphylococcus aureus [4]) | MIC99 (Staphylococcus aureus [5]) | MIC99 (Staphylococcus aureus [6]) | MIC99 (Staphylococcus aureus [7]) | MIC99 (Staphylococcus aureus [8]) | solubility [9] | logP [10] |
| --- | --- | --- | --- | --- | --- | --- | --- | --- | --- | --- | --- | --- |
| CC(=O)NC[C@H]1CN(c2ccc(OC[C@@H](O)CNc3ccccc3)c(F)c2)C(=O)O1 | 8 µg/mL (≈ 19.2 µM) | > 32 µg/mL | > 32 µg/mL | > 64 µg/mL | 4 µg/mL (≈ 9.58 µM) | 8 µg/mL (≈ 19.2 µM) | 4 µg/mL (≈ 9.58 µM) | 4 µg/mL (≈ 9.58 µM) | 8 µg/mL (≈ 19.2 µM) | 8 µg/mL (≈ 19.2 µM) | 124 µM (≈ 51.8 µg/mL) | 1.42 |
| CC(=O)NC[C@H]1CN(c2ccc(OC[C@H](O)CNc3ccccc3)c(F)c2)C(=O)O1 | – | > 32 µg/mL | > 32 µg/mL | > 64 µg/mL | 8 µg/mL (≈ 19.2 µM) | 8 µg/mL (≈ 19.2 µM) | 8 µg/mL (≈ 19.2 µM) | 4 µg/mL (≈ 9.58 µM) | 8 µg/mL (≈ 19.2 µM) | 8 µg/mL (≈ 19.2 µM) | 296 µM (≈ 124 µg/mL) | 0.59 |
| CC(=O)NC[C@H]1CN(c2ccc(OC[C@@H](O)CNc3ccc(C#N)cc3)c(F)c2)C(=O)O1 | – | > 32 µg/mL | > 32 µg/mL | 16 µg/mL (≈ 36.2 µM) | 8 µg/mL (≈ 18.1 µM) | 16 µg/mL (≈ 36.2 µM) | 8 µg/mL (≈ 18.1 µM) | 4 µg/mL (≈ 9.04 µM) | 16 µg/mL (≈ 36.2 µM) | 16 µg/mL (≈ 36.2 µM) | 47 µM (≈ 20.8 µg/mL) | 2.12 |
| CC(=O)NC[C@H]1CN(c2ccc(OC[C@H](O)CNc3ccc(C#N)cc3)c(F)c2)C(=O)O1 | – | > 32 µg/mL | > 32 µg/mL | 32 µg/mL (≈ 72.3 µM) | 16 µg/mL (≈ 36.2 µM) | 16 µg/mL (≈ 36.2 µM) | 8 µg/mL (≈ 18.1 µM) | 8 µg/mL (≈ 18.1 µM) | 16 µg/mL (≈ 36.2 µM) | 16 µg/mL (≈ 36.2 µM) | 69 µM (≈ 30.5 µg/mL) | 1.29 |
| CC(=O)NC[C@H]1CN(c2ccc(OC[C@@H](O)CNc3cc(C(F)(F)F)cc(C(F)(F)F)c3)c(F)c2)C(=O)O1 | – | > 32 µg/mL | > 32 µg/mL | 16 µg/mL (≈ 28.9 µM) | 16 µg/mL (≈ 28.9 µM) | 32 µg/mL (≈ 57.8 µM) | 16 µg/mL (≈ 28.9 µM) | 8 µg/mL (≈ 14.5 µM) | 16 µg/mL (≈ 28.9 µM) | 16 µg/mL (≈ 28.9 µM) | – | 3.1 |
| CC(=O)NC[C@H]1CN(c2ccc(OC[C@H](O)CNc3cc(C(F)(F)F)cc(C(F)(F)F)c3)c(F)c2)C(=O)O1 | – | > 32 µg/mL | > 32 µg/mL | > 64 µg/mL | > 32 µg/mL | > 32 µg/mL | > 32 µg/mL | 32 µg/mL (≈ 57.8 µM) | > 32 µg/mL | > 32 µg/mL | 22 µM (≈ 12.2 µg/mL) | 3.01 |
| CC(=O)NC[C@H]1CN(c2ccc(OC[C@@H](O)CNc3ccccn3)c(F)c2)C(=O)O1 | – | > 32 µg/mL | > 32 µg/mL | > 64 µg/mL | > 32 µg/mL | > 32 µg/mL | > 32 µg/mL | > 32 µg/mL | > 32 µg/mL | > 32 µg/mL | 22200 µM (≈ 9290 µg/mL) | 1.37 |
| CC(=O)NC[C@H]1CN(c2ccc(OC[C@H](O)CNc3ccccn3)c(F)c2)C(=O)O1 | – | > 32 µg/mL | > 32 µg/mL | > 64 µg/mL | > 32 µg/mL | > 32 µg/mL | > 32 µg/mL | > 32 µg/mL | > 32 µg/mL | > 32 µg/mL | 35100 µM (≈ 14700 µg/mL) | 1.6 |
| CC(=O)NC[C@H]1CN(c2ccc(OC[C@@H](O)CNc3cccnc3)c(F)c2)C(=O)O1 | – | > 32 µg/mL | > 32 µg/mL | > 64 µg/mL | > 32 µg/mL | > 32 µg/mL | > 32 µg/mL | > 32 µg/mL | > 32 µg/mL | > 32 µg/mL | 3040 µM (≈ 1270 µg/mL) | 0.02 |
| CC(=O)NC[C@H]1CN(c2ccc(OC[C@H](O)CNc3cccnc3)c(F)c2)C(=O)O1 | – | > 32 µg/mL | > 32 µg/mL | > 64 µg/mL | 32 µg/mL (≈ 76.5 µM) | 32 µg/mL (≈ 76.5 µM) | 32 µg/mL (≈ 76.5 µM) | 32 µg/mL (≈ 76.5 µM) | 32 µg/mL (≈ 76.5 µM) | 32 µg/mL (≈ 76.5 µM) | 10100 µM (≈ 4240 µg/mL) | -0.18 |
| CC(=O)NC[C@H]1CN(c2ccc(OC[C@@H](O)CNc3ccncc3)c(F)c2)C(=O)O1 | – | > 32 µg/mL | > 32 µg/mL | > 64 µg/mL | > 32 µg/mL | > 32 µg/mL | > 32 µg/mL | > 32 µg/mL | > 32 µg/mL | > 32 µg/mL | 17700 µM (≈ 7420 µg/mL) | -0.04 |
| NNC(=O)c1ccncc1 [ISONIAZID] | 0.0625 µg/mL (≈ 0.456 µM) | – | – | 4 µg/mL (≈ 29.2 µM) | – | – | – | – | – | – | – | – |
| CC(=O)NC[C@H]1CN(c2ccc(N3CCOCC3)c(F)c2)C(=O)O1 [LINEZOLID] | 0.25 µg/mL (≈ 0.741 µM) | > 32 µg/mL | > 32 µg/mL | – | 2 µg/mL (≈ 5.93 µM) | 2 µg/mL (≈ 5.93 µM) | 2 µg/mL (≈ 5.93 µM) | 1 µg/mL (≈ 2.96 µM) | 2 µg/mL (≈ 5.93 µM) | 2 µg/mL (≈ 5.93 µM) | – | – |
